Measurements as given in patent publication US8202906B2, “Use of docosahexanoic acid as active substance for the treatment of lipodystrophy” (Proyecto Empresarial Brudy, S.L., priority 2002, dated 2012).
Several values for one entry are separate records, joined by “and”; a condition that tells them apart may be missing. Identical values can stand only once.

Legend:
[1] = system: HIV-infected patients under HAART regimen and presenting lipodystrophy syndrome; test: Example 1: 3 months' administration to HIV-infected patients under HAART with lipodystrophy syndrome; type: in vivo, human; set-up: LDL / VLDL / COL. / TG / HDL: unit not given here; details: 4 grams/day
Procedure: Four HIV-infected patients under HAART regimen and presenting lipodystrophy syndrome were administered 4 grams/day of a tuna oil with a DHA content of 70%. After three months' administration of DHA to said patients, the following discoveries were made, even taking account of the short period of administration: • 1. […] Mean reduction of 56% in the plasma triglycerides number. • 3. Mean reduction of 25% in the total plasma cholesterol number. • 4. Mean increase of 9% in the plasma HDL cholesterol number. • 5. Mean reduction of 18% in the plasma LDL cholesterol number.

[2] = system: patients treated with DHA (lipodystrophy); test: Example 2: 300-day monitoring of the four patients treated with DHA; type: in vivo, human; set-up: COL. / VLDL / TG / HDL / LDL: unit not given here; details: for COL. / HDL / LDL / TG / VLDL: individual patients 1-4
Description: From the four patients treated with DHA at elevated dosages (1.5 g/day), all of them have been monitored for 300 days and, although notable fluctuations are observed, especially regarding to the triglicerids (see Table 2), after 300 days of monitoring, the reduction's mean in the number of triglycerids with respect to the basal level is 66% and for the cholesterol is 28.0%.
All patients have improved their fat redistribution, from the point of view subjective and according to the skill's criterion.

[3] = 3 months, mean of four patients
[4] = after 3 months of treatment, individual patients 1-4
[5] = 1.5 g/day, after 300 days of monitoring, four patients

Q: For CC/C=C\C/C=C\C/C=C\C/C=C\C/C=C\C/C=C\CCC(=O)O [DHA, docosahexaenoic acid], which “Mean increase in the plasma HDL cholesterol number” value [1, 3] is on record?
A: 9%

Q: And the “Mean reduction in the plasma LDL cholesterol number” value [1, 3]?
A: 18%

Q: What about the “Mean reduction in the plasma triglycerides number” value [1, 3] of the same compound?
A: 56%

Q: And the “Mean reduction in the total plasma cholesterol number” value [1, 3]?
A: 25%

Q: What about the COL. [1, 4] of the same compound?
A: 5.46 and 9.48 and 3.82 and 9.9

Q: And the HDL [1, 4]?
A: 1.57 and 0.91 and 1.05 and 0.98

Q: What about the LDL [1, 4] of the same compound?
A: 3.43 and 3.35 and 1.97 and 6.67

Q: What about the TG [1, 4] of the same compound?
A: 1 and 10.66 and 1.73 and 3.41

Q: What about the VLDL [1, 4] of the same compound?
A: 0.46 and 3.74 and 0.8 and 1.82

Q: What about the “drop of HDL cholesterol” value [2, 5] of the same compound?
A: 11.6%

Q: And the “reduction's mean in the cholesterol with respect to the basal level” value [2, 5]?
A: 28.0%

Q: And the “reduction's mean in the number of triglycerids with respect to the basal level” value [2, 5]?
A: 66%

Q: And the COL. ([2]; 15 days of treatment)?
A: 6.37 and 9.74 and 3.92 and 8.73

Q: And the HDL ([2]; 15 days of treatment)?
A: 1.7 and 0.98 and 1.05 and 1.03

Q: And the LDL ([2]; 15 days of treatment)?
A: 4.14 and 6.07 and 1.86 and 5.35

Q: What about the TG ([2]; 15 days of treatment) of the same compound?
A: 1.16 and 5.98 and 3.11 and 5.18

Q: And the VLDL ([2]; 15 days of treatment)?
A: 0.53 and 2.61 and 1.01 and 2.35

Q: What about the COL. ([2]; 30 days of treatment) of the same compound?
A: 6.16 and 8.4 and 4.07 and 8.5

Q: And the HDL ([2]; 30 days of treatment)?
A: 1.79 and 0.86 and 1.06 and 1.16

Q: And the LDL ([2]; 30 days of treatment)?
A: 3.7 and 4.3 and 2.0 and 5.0

Q: What about the TG ([2]; 30 days of treatment) of the same compound?
A: 1.35 and 6.9 and 3.09 and 5.74

Q: And the VLDL ([2]; 30 days of treatment)?
A: 0.62 and 3.18 and 0.97 and 2.26

Q: And the COL. ([2]; 60 days of treatment)?
A: 5.46 and 9.48 and 3.82 and 9.9

Q: What about the HDL ([2]; 60 days of treatment) of the same compound?
A: 1.57 and 0.91 and 1.05 and 0.98

Q: What about the LDL ([2]; 60 days of treatment) of the same compound?
A: 3.43 and 3.35 and 1.97 and 6.67

Q: And the TG ([2]; 60 days of treatment)?
A: 1 and 10.66 and 1.73 and 3.41

Q: And the VLDL ([2]; 60 days of treatment)?
A: 0.46 and 3.74 and 0.8 and 1.82

Q: What about the COL. ([2]; 120 days of treatment) of the same compound?
A: 5.49 and 8.24 and 3.47 and 13.63

Q: And the HDL ([2]; 120 days of treatment)?
A: 1.56 and 1.08 and 1.16 and 0.7

Q: What about the LDL ([2]; 120 days of treatment) of the same compound?
A: 3.26 and 4.6 and 1.61 and 1.46

Q: What about the TG ([2]; 120 days of treatment) of the same compound?
A: 1.45 and 6.36 and 1.51 and 31.7

Q: And the VLDL ([2]; 120 days of treatment)?
A: 0.67 and 2.56 and 0.7 and 9.67

Q: What about the COL. ([2]; 180 days of treatment) of the same compound?
A: 6.15 and 9.64 and 3.76 and 13.21

Q: What about the HDL ([2]; 180 days of treatment) of the same compound?
A: 1.56 and 1.04 and 0.94 and 1.48

Q: What about the LDL ([2]; 180 days of treatment) of the same compound?
A: 3.38 and 2.3 and 1.5 and 2.09

Q: What about the TG ([2]; 180 days of treatment) of the same compound?
A: 2.63 and 15.75 and 2.87 and 16.37

Q: What about the VLDL ([2]; 180 days of treatment) of the same compound?
A: 1.21 and 4.38 and 132 and 3.97

Q: What about the COL. ([2]; 240 days of treatment) of the same compound?
A: 5.7 and 8.1 and 4.04 and 5.33

Q: And the HDL ([2]; 240 days of treatment)?
A: 1.67 and 0.98 and 1.09 and 1.17

Q: What about the LDL ([2]; 240 days of treatment) of the same compound?
A: 3.3 and 4.93 and 2.1 and 3.16

Q: What about the TG ([2]; 240 days of treatment) of the same compound?
A: 1.59 and 5.36 and 1.85 and 2.18

Q: What about the VLDL ([2]; 240 days of treatment) of the same compound?
A: 0.73 and 2.12 and 0.85 and 1

Q: What about the COL. ([2]; 300 days of treatment) of the same compound?
A: 6.01 and 9.3 and 4.34 and 4.27

Q: And the HDL ([2]; 300 days of treatment)?
A: 1.23 and 1.08 and 0.89 and 1.22

Q: And the LDL ([2]; 300 days of treatment)?
A: 4.06 and 5.31 and 2.7 and 2.42

Q: And the TG ([2]; 300 days of treatment)?
A: 1.57 and 7.21 and 1.62 and 1.36

Q: And the VLDL ([2]; 300 days of treatment)?
A: 0.72 and 2.92 and 0.75 and 0.63
